Data: ChEMBL document CHEMBL1121987 (J Med Chem, 1982)
Activity calls are given as the source filed them. No cut-off for these calls is given here.

Experiments:
[1] = pKa value was determined; assay type: physicochemical
[2] = species: Mus musculus; experiment: Growth inhibitory activity against L1210 mouse leukemia cells; assay type: functional
[3] = test system: Mus musculus; experiment: Compound was tested for life span of weight loss in mice at 1 mg/kg/day; assay type: functional
[4] = test system: Mus musculus; experiment: In vivo life span increase in mice after 240 mg/kg (mg/kg)/day (q3d X 3) starting 24 hr of ip administration on; assay type: functional; conditions: route intraperitoneal
[5] = molecular target: T1, Dihydrofolate reductase (Mus musculus) (UniProt P00375); experiment: Inhibitory tested against Dihydrofolate reductase enzyme from L1210 mouse leukemia cells using [3H]methotrexate as a radioligand; assay type: cell-based
T1 sequence (whole entry): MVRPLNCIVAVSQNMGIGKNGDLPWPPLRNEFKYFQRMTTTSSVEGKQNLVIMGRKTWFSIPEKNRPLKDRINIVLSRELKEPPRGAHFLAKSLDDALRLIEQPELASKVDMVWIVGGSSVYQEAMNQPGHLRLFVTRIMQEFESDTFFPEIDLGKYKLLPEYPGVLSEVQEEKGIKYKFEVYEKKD

[6] = test system: Mus musculus; experiment: Compound was tested for life span of weight loss in mice at 4 mg/kg/day; assay type: functional
[7] = molecular target: Dihydrofolate reductase (Lactobacillus casei) (UniProt P00381); experiment: Inhibitory activity tested against dihydrofolate reductase from Lactobacillus casei; conditions: Lacticaseibacillus casei
[8] = test system: Mus musculus; experiment: In vivo life span increase in mice after 60 mg/kg (mg/kg)/day (q3d X 3) starting 24 hr of ip administration on; No activity; assay type: functional, organism-based; design: dose 60 mg/kg; conditions: at 60 mg/kg
[9] = species: Mus musculus; experiment: Compound was tested for life span of weight gain; assay type: functional
[10] = species: Mus musculus; experiment: Compound was tested for life span loss of mean body weight; assay type: functional
[11] = test system: Mus musculus; experiment: In vivo life span increase in mice after 120 mg/kg (mg/kg)/day (q3d X 3) starting 24 hr of ip administration on; No activity; assay type: functional, organism-based; design: dose 120 mg/kg; conditions: at 120 mg/kg
[12] = test system: Mus musculus; experiment: In vivo life span increase in mice after 30 mg/kg (mg/kg)/day (q3d X 3) starting 24 hr of ip administration on;No activity; assay type: functional, organism-based; design: dose 30 mg/kg; conditions: at 30 mg/kg

Sequence of Dihydrofolate reductase (Lactobacillus casei) (P00381 whole entry): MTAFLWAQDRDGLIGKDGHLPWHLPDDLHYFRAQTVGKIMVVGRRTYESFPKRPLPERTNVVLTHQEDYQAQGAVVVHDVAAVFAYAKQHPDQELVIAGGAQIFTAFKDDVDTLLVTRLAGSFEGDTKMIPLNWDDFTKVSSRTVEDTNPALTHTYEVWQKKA

## N[C@@H](CCC(=O)O)C(=O)O [GLUTAMIC ACID]
[1]
  pKa: 3.2

## Nc1nc(N)c2nc(CNc3ccc(CNC(CO)CCC(=O)O)cc3)cnc2n1 (stereo not given)
[2]
  Activity: 1 µM
[3]
  ILS at 1 mg/kg/day: 27%
[4]
  Increase: 22%
[5]
  ID50: 24 nM
[6]
  ILS at 4 mg/kg/day: 45%
[7]
  ID50: 470 nM
[8]
  Increase: inactive
[9]
  Weight gain: 13%
[10]
  Loss: 5%
[11]
  Increase: inactive
[12]
  Increase: inactive

## Nc1nc(N)c2nc(CNc3ccc(C(=O)N[C@@H](CCC(=O)O)C(=O)O)cc3)cnc2n1
[5]
  ID50: 2.2 nM
[7]
  ID50: 27 nM

## CC(=O)NCC(=O)O [ACETURIC ACID]
[1]
  pKa: 3.6
